Experimental data reported in US9371292B2, “Quinazoline derivative, preparation method therefor, intermediate, composition and application thereof” (SHANGHAI PHARMACEUTICALS HOLDINGS CO., LTD., priority 2011, dated 2016).

What was measured:
[1] = test system: A431 cell; test: Proliferation inhibition, A431 cells (CellTiter-Glo); assay type: cell-based; conditions: Homo sapiens, A-431, 48 hours
Procedure: (§1) This example is to determine the proliferation inhibitory activity against wide type of high expression cell lines A431 of EGFR and mutant cell lines NCI-H1975^L858RT790M, the proliferation inhibitory activity in cell-based level of compound is expressed by IC50. The test method is as follows: both cell lines are purchased from American type culture collection (ATCC). The cells are seeded in a white and opaque 384-well culture plate with a proper concentration (A431: 20000 cells/ml medium; H1975: 15000 cells/ml medium), cultured at 37° C. with 5% CO2 for 24 hrs, a series of medicine with gradient concentration is added, generally 10 concentrations, cultured for another 48 hours under the previous conditions. The assays of the proliferation inhibitory activity against the A431 and H1975 cell of the test compounds are performed by the CellTiter-Glo Luminescent Cell Viability Assay and calculate the proliferation inhibitory activity of compound with different concentrations. CellTiter-Glo Luminescent Cell Viability Assay is purchased from Promega. Fit the data of proliferation inhibitory activity against A431 and H1975 of compounds with different concentrations with 4-parameter equation.

[2] = target: T1, EGFR tyrosine kinase (Homo sapiens, UniProt P00533); test: HTRF assay, inhibition of EGFR tyrosine kinase; assay type: biochemical; conditions: HTRF method
T1 construct: purchased Sigma Aldrich
Procedure: The activity of inhibitory against the kinase of the test compound is expressed by IC50. The assays are performed by Homogeneous time-resolved fluorescence (HTRF) method which is as follows: a series of synthesized analogues with gradient concentration are incubated for 5 minutes in enzymatic solution with specific concentration (for EGFR) at room temperature. Then proper amount of substrate and ATP are added into the reaction mixture to start the enzyme reaction. The assays of the specific concentration of compound is measured by Flexstation III of Molecular device company after the stop buffer and detecting liquid are added to the enzyme reaction system and hatch at room temperature for 1 hour. And the activity of inhibitory against the kinase of the test compound with different concentration will be calculated, then according to the 4-parameter equation, fit the inhibitory activity of the test compound with different concentration to get the IC50. EGFR is purchased from Sigma Aldrich. The HTRF KinEASE-TK is purchased from Cisbio Bioassays. ATP is purchased from Sigma Aldrich.

[3] = test system: NCI-H1975 L858R T790M cell; test: Proliferation inhibition, H1975 cells (CellTiter-Glo); assay type: cell-based; conditions: Homo sapiens, 48 hours
Procedure: as §1

T1 sequence (P00533 25-1210): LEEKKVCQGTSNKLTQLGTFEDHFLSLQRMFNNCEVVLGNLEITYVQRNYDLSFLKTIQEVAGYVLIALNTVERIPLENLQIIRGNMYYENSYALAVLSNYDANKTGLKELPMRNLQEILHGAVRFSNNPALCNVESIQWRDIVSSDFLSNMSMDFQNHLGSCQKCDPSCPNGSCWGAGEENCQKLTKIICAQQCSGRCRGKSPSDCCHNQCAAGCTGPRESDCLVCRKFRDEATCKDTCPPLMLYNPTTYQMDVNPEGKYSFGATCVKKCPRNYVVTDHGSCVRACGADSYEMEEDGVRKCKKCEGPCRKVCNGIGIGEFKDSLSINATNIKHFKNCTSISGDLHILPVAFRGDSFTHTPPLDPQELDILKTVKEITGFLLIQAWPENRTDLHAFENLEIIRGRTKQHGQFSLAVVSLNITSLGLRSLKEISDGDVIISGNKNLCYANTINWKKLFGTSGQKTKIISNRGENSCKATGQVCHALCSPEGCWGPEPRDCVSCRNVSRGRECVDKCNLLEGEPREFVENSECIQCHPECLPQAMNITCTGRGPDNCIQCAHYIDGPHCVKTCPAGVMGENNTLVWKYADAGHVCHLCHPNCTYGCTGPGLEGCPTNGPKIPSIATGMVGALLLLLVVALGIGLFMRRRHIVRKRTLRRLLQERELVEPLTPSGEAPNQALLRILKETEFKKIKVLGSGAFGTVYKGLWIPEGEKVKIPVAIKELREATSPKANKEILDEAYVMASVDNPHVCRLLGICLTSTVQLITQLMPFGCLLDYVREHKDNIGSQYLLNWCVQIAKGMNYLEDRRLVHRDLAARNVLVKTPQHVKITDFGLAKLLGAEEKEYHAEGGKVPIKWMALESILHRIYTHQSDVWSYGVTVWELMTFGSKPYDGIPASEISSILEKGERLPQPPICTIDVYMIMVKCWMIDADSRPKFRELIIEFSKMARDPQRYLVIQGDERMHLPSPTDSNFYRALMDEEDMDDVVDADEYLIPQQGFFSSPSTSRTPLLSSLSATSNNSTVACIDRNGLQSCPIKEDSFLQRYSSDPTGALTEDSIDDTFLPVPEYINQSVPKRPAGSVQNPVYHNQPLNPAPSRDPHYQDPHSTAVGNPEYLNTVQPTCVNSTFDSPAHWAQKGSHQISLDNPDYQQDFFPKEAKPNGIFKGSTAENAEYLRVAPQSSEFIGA

C=C(F)C(=O)Nc1cc2c(Nc3ccc(F)c(Cl)c3)ncnc2cc1OC1CCN(C)C1 (stereo in doubt) [Compound 64, (S)-N-[4-(3-chloro-4-fluoro-phenylamino)-7-(1-methyl-pyrrolidin-3-yloxy)-quinazolin-6-yl]-2-fluoro-acrylamide]
IC50 [1]: 3600 nM
IC50 [2]: 4.5 nM
IC50 [3]: 2700 nM

COc1cc2ncnc(Nc3ccc(F)c(Cl)c3)c2cc1NC(=O)/C(F)=C/CN1CCCCC1 [Compound 8-1, (Z)—N-(4-((3-chloro-4-fluorophenyl)amino)-7-methoxyquinazolin-6-yl)-2-fluoro-4-(piperidin-1-yl)but-2-enamide]
IC50 [3]: 1000 nM

COc1cc2ncnc(Nc3ccc(F)c(Cl)c3)c2cc1NC(=O)/C(F)=C\CN1CCCCC1 [Compound 8-2, (E)-N-(4-((3-chloro-4-fluorophenyl)amino)-7-methoxyquinazolin-6-yl)-2-fluoro-4-(piperidin-1-yl)but-2-enamide]
IC50 [1]: 2100 nM

CCOc1cc2ncnc(Nc3ccc(OCc4ccccn4)c(Cl)c3)c2cc1NC(=O)/C(F)=C/CN(C)C [Compound 19-1, (Z)-N-(4-((3-chloro-4-(pyridin-2-ylmethoxy)phenyl)amino)-7-ethoxyquinazolin-6-yl)-4-(dimethylamino)-2-fluorobut-2-enamide]
IC50 [2]: 0.57 nM

CCOc1cc2ncnc(Nc3ccc(OCc4ccccn4)c(Cl)c3)c2cc1NC(=O)/C(F)=C\CN(C)C [Compound 19-2, (E)-N-(4-((3-chloro-4-(pyridin-2-ylmethoxy)phenyl)amino)-7-ethoxyquinazolin-6-yl)-4-(dimethylamino)-2-fluorobut-2-enamide]
IC50 [2]: 0.89 nM
IC50 [3]: 1100 nM

O=C(Nc1cc2c(Nc3ccc(F)c(Cl)c3)ncnc2cc1O[C@H]1CCOC1)/C(F)=C/CN1CCOCC1 [Compound 20-1, (S,Z)-N-(4-((3-chloro-4-fluorophenyl)amino)-7-((tetrahydrofuran-3-yl)oxy)quinazolin-6-yl)-2-fluoro-4-morpholinobut-2-enamide]
IC50 [1]: 12000 nM
IC50 [3]: 4300 nM

O=C(Nc1cc2c(Nc3ccc(F)c(Cl)c3)ncnc2cc1O[C@H]1CCOC1)/C(F)=C\CN1CCOCC1 [Compound 20-2, (S,E)-N-(4-((3-chloro-4-fluorophenyl)amino)-7-((tetrahydrofuran-3-yl)oxy)quinazolin-6-yl)-2-fluoro-4-morpholinobut-2-enamide]
IC50 [1]: > 100000 nM
IC50 [3]: 2300 nM

CN(C)C/C=C(\F)C(=O)Nc1cc2c(Nc3ccc(F)c(Cl)c3)ncnc2cc1O[C@H]1CCOC1 [Compound 21-1, (S,Z)-N-(4-((3-chloro-4-fluorophenyl)amino)-7-((tetrahydrofuran-3-yl)oxy)quinazolin-6-yl)-4-(dimethylamino)-2-fluorobut-2-enamide]
IC50 [1]: 98000 nM
IC50 [2]: 0.16 nM
IC50 [3]: 1200 nM

CN(C)C/C=C(/F)C(=O)Nc1cc2c(Nc3ccc(F)c(Cl)c3)ncnc2cc1O[C@H]1CCOC1 [Compound 21-2, (S,E)-N-(4-((3-chloro-4-fluorophenyl)amino)-7-((tetrahydrofuran-3-yl)oxy)quinazolin-6-yl)-4-(dimethylamino)-2-fluorobut-2-enamide]
IC50 [1]: 3100 nM
IC50 [2]: 0.31 nM
IC50 [3]: 1500 nM

COc1cc2ncnc(Nc3ccc(F)c(Cl)c3)c2cc1NC(=O)/C(F)=C/CN1CCOCC1 [Compound 22-1, (Z)-N-(4-((3-chloro-4-fluorophenyl)amino)-7-methoxyquinazolin-6-yl)-2-fluoro-4-morpholinobut-2-enamide]
IC50 [1]: 8100 nM
IC50 [2]: 0.53 nM
IC50 [3]: 3700 nM

COc1cc2ncnc(Nc3ccc(F)c(Cl)c3)c2cc1NC(=O)/C(F)=C\CN1CCOCC1 [Compound 22-2, (E)-N-(4-((3-chloro-4-fluorophenyl)amino)-7-methoxyquinazolin-6-yl)-2-fluoro-4-morpholinobut-2-enamide]
IC50 [1]: 2900 nM
IC50 [2]: 0.3 nM
IC50 [3]: 2400 nM

C=C(F)C(=O)Nc1cc2c(Nc3ccc(Br)cc3F)ncnc2cc1OCCCN1CCOCC1 [Compound 23, N-[4-(4-Bromo-2-fluoro-phenylamino)-7-(3-morpholin-4-yl-propoxy)-quinazolin-6-yl]-2-fluoro-acrylamide]
IC50 [1]: 1300 nM
IC50 [2]: 1.6 nM
IC50 [3]: 3000 nM

C=C(F)C(=O)Nc1cc2c(Nc3ccc(F)c(Cl)c3F)ncnc2cc1OCCCN1CCOCC1 [Compound 24, N-[4-(3-chloro-2,4-difluoro-phenylamino)-7-(3-morpholin-4-yl-propoxy)-quinazolin-6-yl]-2-fluoro-acrylamide]
IC50 [1]: 1300 nM
IC50 [2]: 0.19 nM
IC50 [3]: 2200 nM

C#Cc1cccc(Nc2ncnc3cc(OCCCN4CCOCC4)c(NC(=O)C(=C)F)cc23)c1 [Compound 25, N-[4-(3-ethynyl-phenylamino)-7-(3-morpholin-4-yl-propoxy)-quinazolin-6-yl]-2-fluoro-acrylamide]
IC50 [1]: 1200 nM
IC50 [2]: 0.19 nM
IC50 [3]: 1900 nM

C=C(F)C(=O)Nc1cc2c(Nc3cccc(Cl)c3F)ncnc2cc1OCCCN1CCOCC1 [Compound 26, N-[4-(3-chloro-2-fluoro-phenylamino)-7-(3-morpholin-4-yl-propoxy)-quinazolin-6-yl]-2-fluoro-acrylamide]
IC50 [1]: 4500 nM
IC50 [2]: 0.35 nM
IC50 [3]: 5400 nM

C=C(F)C(=O)Nc1cc2c(Nc3cc(OC)c(Cl)cc3Cl)ncnc2cc1OCCCN1CCOCC1 [Compound 27, N-[4-(2,4-dichloro-5-methoxy-phenylamino)-7-(3-morpholin-4-yl-propoxy)-quinazolin-6-yl]-2-fluoro-acrylamide]
IC50 [3]: 2700 nM

C=C(F)C(=O)Nc1cc2c(Nc3cccc(Br)c3)ncnc2cc1OCCCN1CCOCC1 [Compound 28, N-[4-(3-bromo-phenylamino)-7-(3-morpholin-4-yl-propoxy)-quinazolin-6-yl]-2-fluoro-acrylamide]
IC50 [1]: 29000 nM
IC50 [2]: 0.32 nM
IC50 [3]: 1400 nM

C=C(F)C(=O)Nc1cc2c(Nc3ccc(OCc4cccc(F)c4)c(Cl)c3)ncnc2cc1OCCCN1CCOCC1 [Compound 29, N-[4-[3-chloro-4-(3-fluoro-benzyloxy)-phenylamino]-7-(3-morpholin-4-yl-propoxy)-quinazolin-6-yl]-2-fluoro-acrylamide]
IC50 [1]: 5900 nM
IC50 [2]: 3.3 nM
IC50 [3]: 1900 nM

C=C(F)C(=O)Nc1cc2c(Nc3ccc(Cl)c(Cl)c3F)ncnc2cc1OCCCN1CCOCC1 [Compound 30, N-[4-(3,4-dichloro-2-fluoro-phenylamino)-7-(3-morpholin-4-yl-propoxy)-quinazolin-6-yl]-2-fluoro-acrylamide]
IC50 [1]: 520 nM
IC50 [2]: 0.22 nM
IC50 [3]: 1500 nM

C=C(F)C(=O)Nc1cc2c(Nc3ccc(F)cc3F)ncnc2cc1OCCCN1CCOCC1 [Compound 31, N-[4-(2,4-difluoro-phenylamino)-7-(3-morpholin-4-yl-propoxy)-quinazolin-6-yl]-2-fluoro-acrylamide]
IC50 [1]: 6500 nM
IC50 [2]: 1.4 nM
IC50 [3]: 6000 nM

C=C(F)C(=O)Nc1cc2c(Nc3ccc(F)c(F)c3F)ncnc2cc1OCCCN1CCOCC1 [Compound 32, N-[7-(3-morpholin-4-yl-propoxy)-4-(2,3,4-trifluoro-phenylamino)-quinazolin-6-yl]-2-fluoro-acrylamide]
IC50 [1]: 4200 nM
IC50 [2]: 0.72 nM
IC50 [3]: 5600 nM

C=C(Cl)C(=O)Nc1cc2c(Nc3ccc(F)c(Cl)c3F)ncnc2cc1OCCCN1CCOCC1 [Compound 34, N-[4-(3-chloro-2,4-difluoro-phenylamino)-7-(3-morpholin-4-yl-propoxy)-quinazolin-6-yl]-2-chloro-acrylamide]
IC50 [1]: > 100000 nM
IC50 [2]: 0.65 nM
IC50 [3]: 5200 nM

C=C(Cl)C(=O)Nc1cc2c(Nc3ccc(F)c(Cl)c3)ncnc2cc1OCCCN1CCOCC1 [Compound 35, N-[4-(3-chloro-4-fluoro-phenylamino)-7-(3-morpholin-4-yl-propoxy)-quinazolin-6-yl]-2-chloro-acrylamide]
IC50 [1]: > 100000 nM
IC50 [2]: 0.97 nM
IC50 [3]: 8500 nM

C=C(Cl)C(=O)Nc1cc2c(Nc3ccc(F)c(Cl)c3)ncnc2cc1OCCCN1CCOCC1 [Compound 41, N-[4-(3-chloro-4-fluoro-phenylamino)-7-(3-morpholin-4-yl-propoxy)-quinazolin-6-yl]-2-chloro-acrylamide]
IC50 [2]: 0.37 nM

C=C(F)C(=O)Nc1cc2c(Nc3ccc(F)c(Cl)c3)ncnc2cc1OC1CCN(C)CC1 [Compound 49, N-[4-(3-chloro-4-fluoro-phenylamino)-7-(1-methyl-piperidin-4-yloxy)-quinazolin-6-yl]-2-fluoro-acrylamide]
IC50 [1]: 8600 nM
IC50 [3]: 5600 nM
